According to US20230416248A1, “COMPOUNDS AND USES THEREOF” (Foghorn Therapeutics Inc., priority 2020, published 2023):
Like-named read-outs stand apart in the source and are kept apart here.

Experiments:
[1] = target: T1, BRM (Homo sapiens, UniProt P51531); assay: ATPase catalytic activity of BRM, ADP-Glo in vitro biochemical assay; conditions: for IC50: 30 nM BRM, 400 μM ATP; for Ratio* (BRG1 IC50 (μM) divided by BRM IC50 (μM)): selectivity ratio BRG1 IC50 / BRM IC50
T1 construct: made in house; host or cells: High Five insect cells
Procedure: (§1) The ATPase catalytic activity of BRM or BRG-1 was measured by an in vitro biochemical assay using ADP-Glo™ (Promega, V9102). The ADP-Glo™ kinase assay is performed in two steps once the reaction is complete. The first step is to deplete any unconsumed ATP in the reaction. The second step is to convert the reaction product ADP to ATP, which will be utilized by the luciferase to generate luminesce and be detected by a luminescence reader, such as Envision.
The assay reaction mixture ([…]) contains 30 nM of BRM or BRG-1, 20 nM salmon sperm DNA (from Invitrogen, UfraPure™ Salmon Sperm DNA Solution, cat #15632011), and 400 μM of ATP in the ATPase assay buffer, which comprises of 20 mM Tris, pH 8, 20 mM MgCl2, 50 mM NaCl, 0.1% Tween-20, and 1 mM fresh DTT (Piercer™ DTT (Dithiothreitol), cat #20290). The reaction is initiated by the addition of the 2.5 μL ATPase solution to 2.5 μL ATP/DNA solution on low volume white Proxiplate-384 plus plate (PerkinElmer, cat #6008280) and incubates at room temperature for 1 hour. Then, following addition of 5 μL of ADP-Glo™ Reagent provided in the kit, the reaction incubates at room temperature for 40 minutes. Then, 10 μL of Kinase Detection Reagent provided in the kit is added to convert ADP to ATP, and the reaction incubates at room temperature for 60 minutes. Finally, luminescence measurement is collected with a plate-reading luminometer, such as Envision.

[2] = target: T2, BRG-1 (Homo sapiens, UniProt P51532); assay: ATPase catalytic activity of BRG-1, ADP-Glo in vitro biochemical assay; conditions: 30 nM BRG-1, 400 μM ATP, read-out: BRG1 IC50
T2 construct: made in house; host or cells: High Five insect cells
Procedure: as §1
Then, following addition of 5 μL of ADP-Glo™ Reagent provided in the kit, the reaction incubates at room temperature for 40 minutes. Then, 10 μL of Kinase Detection Reagent provided in the kit is added to convert ADP to ATP, and the reaction incubates at room temperature for 60 minutes. Finally, luminescence measurement is collected with a plate-reading luminometer, such as Envision.

[3] = ATPase catalytic activity, ADP-Glo

T1 sequence (P51531 whole entry): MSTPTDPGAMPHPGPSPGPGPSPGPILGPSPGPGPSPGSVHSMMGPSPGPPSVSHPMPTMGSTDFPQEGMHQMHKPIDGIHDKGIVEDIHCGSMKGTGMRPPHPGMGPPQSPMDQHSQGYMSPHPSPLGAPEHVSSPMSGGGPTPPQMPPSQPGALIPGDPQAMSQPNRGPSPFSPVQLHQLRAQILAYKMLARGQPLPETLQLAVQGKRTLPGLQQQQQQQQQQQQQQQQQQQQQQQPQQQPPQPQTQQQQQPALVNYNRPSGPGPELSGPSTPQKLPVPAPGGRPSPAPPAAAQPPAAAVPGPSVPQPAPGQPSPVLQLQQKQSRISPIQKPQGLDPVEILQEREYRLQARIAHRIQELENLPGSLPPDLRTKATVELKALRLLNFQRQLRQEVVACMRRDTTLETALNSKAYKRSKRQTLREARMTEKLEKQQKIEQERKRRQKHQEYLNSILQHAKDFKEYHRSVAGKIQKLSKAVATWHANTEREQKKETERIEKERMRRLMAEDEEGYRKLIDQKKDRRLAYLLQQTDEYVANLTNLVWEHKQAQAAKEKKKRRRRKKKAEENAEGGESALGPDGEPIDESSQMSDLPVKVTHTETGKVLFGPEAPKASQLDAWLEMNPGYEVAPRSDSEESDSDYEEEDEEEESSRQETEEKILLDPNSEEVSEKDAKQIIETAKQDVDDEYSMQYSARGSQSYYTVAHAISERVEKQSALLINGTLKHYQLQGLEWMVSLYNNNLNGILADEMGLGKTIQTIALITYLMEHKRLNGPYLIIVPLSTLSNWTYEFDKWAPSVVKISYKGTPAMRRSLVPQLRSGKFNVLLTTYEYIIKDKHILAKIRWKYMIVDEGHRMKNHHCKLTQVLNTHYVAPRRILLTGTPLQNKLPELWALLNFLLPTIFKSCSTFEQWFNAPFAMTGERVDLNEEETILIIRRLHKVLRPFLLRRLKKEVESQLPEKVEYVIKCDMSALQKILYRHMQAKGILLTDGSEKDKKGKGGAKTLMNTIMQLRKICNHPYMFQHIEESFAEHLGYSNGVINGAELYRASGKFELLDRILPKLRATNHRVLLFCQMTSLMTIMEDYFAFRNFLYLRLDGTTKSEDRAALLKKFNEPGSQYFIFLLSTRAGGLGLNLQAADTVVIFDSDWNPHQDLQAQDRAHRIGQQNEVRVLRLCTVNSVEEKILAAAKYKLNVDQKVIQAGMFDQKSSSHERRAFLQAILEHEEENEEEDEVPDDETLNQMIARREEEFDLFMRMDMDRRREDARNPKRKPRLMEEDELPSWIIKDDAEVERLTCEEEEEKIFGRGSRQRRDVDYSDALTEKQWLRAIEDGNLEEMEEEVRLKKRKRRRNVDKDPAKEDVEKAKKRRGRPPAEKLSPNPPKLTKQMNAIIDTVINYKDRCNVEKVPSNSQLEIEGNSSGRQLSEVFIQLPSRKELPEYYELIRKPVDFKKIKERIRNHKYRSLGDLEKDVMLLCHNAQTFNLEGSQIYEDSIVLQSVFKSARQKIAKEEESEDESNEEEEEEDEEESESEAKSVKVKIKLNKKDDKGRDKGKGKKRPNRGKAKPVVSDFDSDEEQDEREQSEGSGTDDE
T2 sequence (P51532 whole entry): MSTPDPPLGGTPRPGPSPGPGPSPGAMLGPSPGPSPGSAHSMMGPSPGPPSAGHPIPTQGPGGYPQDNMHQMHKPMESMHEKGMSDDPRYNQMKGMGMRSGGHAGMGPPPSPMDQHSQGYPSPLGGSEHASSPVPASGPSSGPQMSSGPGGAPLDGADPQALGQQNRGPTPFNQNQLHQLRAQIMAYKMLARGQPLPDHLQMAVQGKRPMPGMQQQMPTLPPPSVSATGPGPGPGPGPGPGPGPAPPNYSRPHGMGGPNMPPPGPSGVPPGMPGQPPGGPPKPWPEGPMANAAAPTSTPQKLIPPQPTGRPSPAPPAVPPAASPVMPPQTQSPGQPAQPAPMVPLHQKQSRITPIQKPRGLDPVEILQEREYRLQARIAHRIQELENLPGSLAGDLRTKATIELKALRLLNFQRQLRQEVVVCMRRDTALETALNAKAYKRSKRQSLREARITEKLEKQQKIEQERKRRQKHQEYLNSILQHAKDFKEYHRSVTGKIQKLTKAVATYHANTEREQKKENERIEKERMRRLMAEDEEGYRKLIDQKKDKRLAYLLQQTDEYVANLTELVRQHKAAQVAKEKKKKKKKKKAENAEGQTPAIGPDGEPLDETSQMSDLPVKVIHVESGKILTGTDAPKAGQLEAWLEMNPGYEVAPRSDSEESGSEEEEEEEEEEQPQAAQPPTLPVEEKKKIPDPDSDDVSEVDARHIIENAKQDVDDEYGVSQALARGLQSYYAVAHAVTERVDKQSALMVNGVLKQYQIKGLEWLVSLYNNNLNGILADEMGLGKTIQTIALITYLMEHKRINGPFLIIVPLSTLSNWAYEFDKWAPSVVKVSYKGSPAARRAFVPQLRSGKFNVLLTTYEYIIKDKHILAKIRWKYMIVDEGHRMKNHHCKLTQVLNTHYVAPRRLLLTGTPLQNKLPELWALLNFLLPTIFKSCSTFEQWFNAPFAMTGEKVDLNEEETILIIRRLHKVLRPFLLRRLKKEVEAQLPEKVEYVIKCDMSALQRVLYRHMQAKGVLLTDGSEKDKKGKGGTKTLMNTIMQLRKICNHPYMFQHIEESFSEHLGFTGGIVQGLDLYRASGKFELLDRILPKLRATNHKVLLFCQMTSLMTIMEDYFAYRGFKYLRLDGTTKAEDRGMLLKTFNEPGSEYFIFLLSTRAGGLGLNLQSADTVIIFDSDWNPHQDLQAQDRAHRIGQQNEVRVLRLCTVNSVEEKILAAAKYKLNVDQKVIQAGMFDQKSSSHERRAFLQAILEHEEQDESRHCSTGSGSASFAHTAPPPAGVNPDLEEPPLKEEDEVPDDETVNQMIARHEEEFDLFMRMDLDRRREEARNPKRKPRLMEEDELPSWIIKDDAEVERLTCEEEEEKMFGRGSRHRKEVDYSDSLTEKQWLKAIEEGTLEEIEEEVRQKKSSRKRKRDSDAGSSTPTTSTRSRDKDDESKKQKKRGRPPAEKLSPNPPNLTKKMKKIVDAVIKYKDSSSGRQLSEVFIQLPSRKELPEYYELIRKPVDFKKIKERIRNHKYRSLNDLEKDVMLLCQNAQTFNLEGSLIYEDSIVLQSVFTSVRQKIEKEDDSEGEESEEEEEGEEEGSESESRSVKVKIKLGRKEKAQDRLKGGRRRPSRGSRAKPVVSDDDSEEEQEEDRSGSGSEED

IC50 ([1]; ADP-Glo ATPase assay)	Ratio* (BRG1 IC50 (μM) divided by BRM IC50 (μM)) [1]	IC50 ([2]; ADP-Glo ATPase assay)	Ratio* ([1]; ratio BRG1 IC50 / BRM IC50)	IC50 [1, 3]	Ratio* ([1]; ratio of BRG1 IC50 to BRM IC50)	IC50 [2, 3]	SMILES
697 nM	7.17	5000 nM	–	–	–	–	COC[C@H](C)S(=O)(=O)c1cccc(C(=O)NCc2cc3nc(-c4cncc(C5CC5)n4)ccc3cn2)c1 [Compound 260]
261 nM	19.12	5000 nM	–	–	–	–	COCCS(=O)(=O)c1cc(C(=O)NCc2cc3nc(-c4cncc(C5CC5)n4)ccc3cn2)ccc1Cl [Compound 238]
5.4 nM	–	22.1 nM	4.12	–	–	–	[2H]C1([2H])OC([2H])([2H])[C@H](C)S(=O)(=O)c2cc(C(=O)NCc3cc4nc(-c5cccc(N6C[C@@H](C)O[C@@H](C)C6)n5)ccc4cn3)ccc21 [Compound 715]
–	–	–	–	98.3 nM	21.63	2130 nM	C[C@@H]1CCS(=O)(=O)c2cc(C(=O)NCc3cc4nc(-c5cccc(N6C[C@@H](C)O[C@@H](C)C6)n5)ccc4cn3)ccc2O1 [Compound 416]
21.4 nM	29.53	633 nM	–	–	–	–	O=C(NCc1cc2nc(-c3cccc(C4CC4)n3)ccc2cn1)c1cc(F)c2c(c1)S(=O)(=O)CCOC2 [Compound 63]
44.6 nM	–	1920 nM	42.98	–	–	–	O=C(NCc1cc2cc(N3CCOc4ccc(C5CC5)nc43)ccc2cn1)c1ccc2c(c1)S(=O)(=O)CCOC2 [Compound 729]
–	–	–	–	20.8 nM	29.03	603 nM	O=C(NCc1cc2nc(-c3cccc(C4CC4)n3)cnc2cn1)c1cc(F)c2c(c1)S(=O)(=O)CCOC2 [Compound 424]
–	–	–	–	8.7 nM	7.36	63.9 nM	C[C@@H]1CN(c2cccc(-c3ccc4cnc(CNC(=O)c5cc(C(F)F)c6c(c5)S(=O)(=O)CCOC6)cc4n3)n2)C[C@H](C)O1 [Compound 355]
–	–	–	–	20.9 nM	8.47	177 nM	N#Cc1ccc2c(c1)CCCN2c1ccc2cnc(CNC(=O)c3ccc4c(c3)S(=O)(=O)CCOC4)cc2n1 [Compound 527]
–	–	–	–	7.8 nM	14.57	114 nM	COc1nc(-c2ccc3cnc(CNC(=O)c4ccc5c(c4)S(=O)(=O)CCOC5)cc3n2)ccc1C(F)F [Compound 399]
–	–	–	–	227 nM	3.90	883 nM	COC[C@H]1COc2c(-c3ccc4cnc(CNC(=O)c5ccc6c(c5)S(=O)(=O)CCOC6)cc4n3)cccc2N1C [Compound 638]
–	–	–	–	102 nM	15.25	1560 nM	C[C@H]1COCc2ccc(C(=O)NCc3cc4nc(-c5ccnc([C@@H]6CC6(F)F)n5)ccc4cn3)cc2S1(=O)=O [Compound 465]
–	–	–	–	35.3 nM	5.73	202 nM	Cc1cc2c(-c3ccc4cnc(CNC(=O)c5ccc6c(c5)S(=O)(=O)CCOC6)cc4n3)cncc2n1C [Compound 657]
112 nM	9.48	1060 nM	–	–	–	–	COCCOc1cccc(-c2ccc3cnc(CNC(=O)c4ccc5c(c4)S(=O)(=O)CCOC5)cc3n2)c1 [Compound 135]
742 nM	–	4820 nM	6.49	–	–	–	Cc1ccc(-c2ccc3cnc(CNC(=O)c4ccc5c(c4)S(=O)(=O)CCOC5)cc3n2)c(=O)n1C [Compound 824]
136 nM	9.05	1230 nM	–	–	–	–	C[C@]1(c2cccc(-c3ccc4cnc(CNC(=O)c5ccc6c(c5)S(=O)(=O)CCOC6)cc4n3)n2)CC1(F)F [Compound 219]
16.4 nM	–	339 nM	20.67	–	–	–	Cc1nc2c(cc1F)OCCN2c1ccc2cnc(CNC(=O)c3ccc4c(c3)S(=O)(=O)CCOC4)cc2n1 [Compound 770]
–	–	–	–	5.7 nM	10.67	60.9 nM	COCCN1CCOc2c(-c3ccc4cnc(CNC(=O)c5ccc6c(c5)S(=O)(=O)CCOC6)cc4n3)ccc(F)c21 [Compound 402]
–	–	–	–	25.2 nM	8.46	213 nM	C[C@@H]1CN(c2cccc(-c3ccc4cnc(CNC(=O)c5ccc6c(c5)S(=O)(=O)CCO[C@@H]6C5CC5)cc4n3)n2)C[C@H](C)O1 [Compound 454]
–	–	–	–	12.1 nM	20.44	247 nM	C[C@H]1COCc2ccc(C(=O)NCc3cc4nc(N5CCOc6cc(Cl)cnc65)ccc4cn3)cc2S1(=O)=O [Compound 646]
–	–	–	–	23.8 nM	5.71	136 nM	CC1COc2ccc(-c3ccc4cnc(CNC(=O)c5ccc6c(c5)S(=O)(=O)CCOC6)cc4n3)nc2N1C (stereo not drawn) [Compound 426]
34 nM	12.93	440 nM	–	–	–	–	O=C(NCc1cc2nc(-c3cncc(C4CC4)n3)ccc2cn1)c1ccc2c(c1)S(=O)(=O)COCC2 [Compound 236]
–	–	–	–	6.6 nM	16.08	107 nM	COCCn1ccc2c(-c3ccc4cnc(CNC(=O)c5ccc6c(c5)S(=O)(=O)CCOC6)cc4n3)ccnc21 [Compound 336]
–	–	–	–	19 nM	12.21	231 nM	CC1Cc2ccc(C(=O)NCc3cc4nc(-c5cccc(N6C[C@@H](C)O[C@@H](C)C6)n5)ccc4cn3)cc2S1(=O)=O (stereo partly drawn) [Compound 364]
17.6 nM	9.92	174 nM	–	–	–	–	CC1(c2cccc(-c3ccc4cnc(CNC(=O)c5ccc6c(c5)S(=O)(=O)CCOC6)cc4n3)n2)CC1 [Compound 210]
–	–	–	–	12.7 nM	7.17	90.8 nM	CN1CCCc2ccc(-c3ccc4cnc(CNC(=O)c5ccc6c(c5)S(=O)(=O)CCOC6)cc4n3)nc21 [Compound 488]
–	–	–	–	25 nM	14.93	373 nM	O=C(NCc1cc2nc(-c3cccc(C45COCC4C5)n3)ccc2cn1)c1ccc2c(c1)S(=O)(=O)CCOC2 (stereo not drawn) [Compound 472]
60.8 nM	11.00	669 nM	–	–	–	–	Cn1ccc2c(-c3ccc4cnc(CNC(=O)c5ccc6c(c5)S(=O)(=O)CCOC6)cc4n3)ccnc21 [Compound 151]
105 nM	7.17	751 nM	–	–	–	–	O=C(NCc1cc2nc(-c3ccccc3OC(F)F)ccc2cn1)c1ccc2c(c1)S(=O)(=O)CCOC2 [Compound 250]
